Measured values from the NIST ThermoML archive (doi:10.1016/j.fluid.2006.01.030).

Assay: xn = mol fraction of the nth substance listed
Conditions: Liquid

CCCCCCC [heptane] + CCO
viscosity [mPa·s]
Conditions | x2 = 0 | x2 = 0.125 | x2 = 0.25 | x2 = 0.375 | x2 = 0.5 | x2 = 0.625 | x2 = 0.75 | x2 = 0.875
293.15 K, 100 kPa, Capillary tube (Ostwald / Ubbelohde) method | 0.41 | 0.419 | 0.45 | 0.494 | 0.556 | 0.644 | 0.757 | 0.931
293.15 K, 20000 kPa, Falling or rolling sphere viscometry | 0.509 | 0.518 | 0.547 | 0.597 | 0.668 | 0.76 | 0.885 | 1.052
293.15 K, 40000 kPa, Falling or rolling sphere viscometry | 0.604 | 0.614 | 0.648 | 0.707 | 0.787 | 0.888 | 1.023 | 1.2
293.15 K, 60000 kPa, Falling or rolling sphere viscometry | 0.706 | 0.718 | 0.757 | 0.824 | 0.913 | 1.022 | 1.168 | 1.354
293.15 K, 80000 kPa, Falling or rolling sphere viscometry | 0.817 | 0.832 | 0.875 | 0.951 | 1.047 | 1.162 | 1.316 | 1.509
293.15 K, 100000 kPa, Falling or rolling sphere viscometry | 0.937 | 0.953 | 1.003 | 1.087 | 1.191 | 1.312 | 1.473 | 1.674
313.15 K, 100 kPa, Capillary tube (Ostwald / Ubbelohde) method | 0.333 | 0.336 | 0.354 | 0.383 | 0.421 | 0.475 | 0.55 | 0.66
313.15 K, 20000 kPa, Falling or rolling sphere viscometry | 0.408 | 0.413 | 0.429 | 0.464 | 0.508 | 0.567 | 0.65 | 0.766
313.15 K, 40000 kPa, Falling or rolling sphere viscometry | 0.487 | 0.495 | 0.513 | 0.553 | 0.602 | 0.666 | 0.756 | 0.877
313.15 K, 60000 kPa, Falling or rolling sphere viscometry | 0.57 | 0.579 | 0.599 | 0.644 | 0.699 | 0.768 | 0.864 | 0.989
313.15 K, 80000 kPa, Falling or rolling sphere viscometry | 0.658 | 0.666 | 0.69 | 0.739 | 0.8 | 0.874 | 0.974 | 1.102
313.15 K, 100000 kPa, Falling or rolling sphere viscometry | 0.751 | 0.758 | 0.786 | 0.838 | 0.906 | 0.984 | 1.088 | 1.217
333.15 K, 100 kPa, Capillary tube (Ostwald / Ubbelohde) method | 0.276 | 0.274 | 0.282 | 0.299 | 0.325 | 0.361 | 0.409 | 0.484
333.15 K, 20000 kPa, Falling or rolling sphere viscometry | 0.336 | 0.332 | 0.344 | 0.364 | 0.393 | 0.435 | 0.489 | 0.565
333.15 K, 40000 kPa, Falling or rolling sphere viscometry | 0.402 | 0.4 | 0.414 | 0.436 | 0.469 | 0.515 | 0.571 | 0.651
333.15 K, 60000 kPa, Falling or rolling sphere viscometry | 0.472 | 0.471 | 0.486 | 0.511 | 0.546 | 0.595 | 0.653 | 0.734
333.15 K, 80000 kPa, Falling or rolling sphere viscometry | 0.546 | 0.544 | 0.56 | 0.589 | 0.623 | 0.677 | 0.735 | 0.816
333.15 K, 100000 kPa, Falling or rolling sphere viscometry | 0.623 | 0.621 | 0.636 | 0.67 | 0.703 | 0.761 | 0.818 | 0.898
353.15 K, 100 kPa, Capillary tube (Ostwald / Ubbelohde) method | 0.232 | – | – | – | – | – | – | –
353.15 K, 20000 kPa, Falling or rolling sphere viscometry | 0.289 | 0.282 | 0.286 | 0.298 | 0.316 | 0.341 | 0.374 | 0.423
353.15 K, 40000 kPa, Falling or rolling sphere viscometry | 0.346 | 0.337 | 0.343 | 0.357 | 0.376 | 0.403 | 0.437 | 0.49
353.15 K, 60000 kPa, Falling or rolling sphere viscometry | 0.401 | 0.394 | 0.401 | 0.412 | 0.434 | 0.464 | 0.501 | 0.556
353.15 K, 80000 kPa, Falling or rolling sphere viscometry | 0.458 | 0.45 | 0.458 | 0.475 | 0.499 | 0.53 | 0.565 | 0.622
353.15 K, 100000 kPa, Falling or rolling sphere viscometry | 0.521 | 0.513 | 0.522 | 0.539 | 0.565 | 0.599 | 0.631 | 0.69
